Eight compounds from PMC4993599 (Bioorganic & medicinal chemistry letters, 2016) can be followed below.

Series [1] is described as follows: Lipophilicity by analytical reverse phase HPLC. In kind it is physicochemical.
The target in another series is TSPO (Rattus norvegicus, UniProt P16257). The series is described as follows: C6 glioma cell lysate binding assay. To be noted: for binding affinity (in words): TSPO.

Take `CCN(CC)C(=O)Cc1c(-c2ccc(OC)cc2)nn2c(C)cc(C)nc12` [Compound 8, DPA-713, reference compound]: in series [1] (reverse phase HPLC, averaged from triple runs), the “log P7.5” value was 2.40.
For the compound `CCCCN(CCCC)C(=O)Cc1c(-c2ccc(OC)cc2)nn2c(CC)cc(CC)nc12` [Compound 12], in series [1], the “lipophilicity (in words)” value is listed as “extremely lipophilic”.
Same read-out and setting: the result for `CCCCCN(CCCCC)C(=O)Cc1c(-c2ccc(OC)cc2)nn2c(CC)cc(CC)nc12` [Compound 13] reads “extremely lipophilic”; that for `CCCCCCN(CCCCCC)C(=O)Cc1c(-c2ccc(OC)cc2)nn2c(CC)cc(CC)nc12` [Compound 14], “extremely lipophilic”.
As for `CCc1cc(CC)n2nc(-c3ccc(OC)cc3)c(CC(=O)N(CC)C(C)(C)C)c2n1` [Compound 16], the “decrease of affinity when substituting ethyl groups with t-butyls” value on TSPO (compound 16 relative to compound 10) was “over 300 fold”.
For `CCc1cc(CC)n2nc(-c3ccc(OC)cc3)c(CC(=O)N3CCC3)c2n1` [Compound 23], the “binding affinity (in words)” value at TSPO was “very poor binding affinity”.
On the same count and under the same terms, the result for `CCc1cc(CC)n2nc(-c3ccc(OC)cc3)c(CC(=O)N3CCCC3)c2n1` [Compound 24] reads “very poor binding affinity”; that for `CCc1cc(CC)n2nc(-c3ccc(OC)cc3)c(CC(=O)N3CCCCC3)c2n1` [Compound 25], “very poor binding affinity”.
